Experimental data published in patent US12534478B2, “Prevention, prophylactic and therapeutic treatment of autoimmune diseases including multiple sclerosis using novel small molecules and compositions thereof” (University of Sharjah, priority 2020, dated 2026).
“Also recorded” adds a separate entry of the source.

Experiments:
[1] = test system: experimental autoimmune encephalomyelitis (EAE) model; test: EAE clinical score in PLP-induced EAE mice; format: in vivo, SJL/J female mice; settings: for clinical score severity and clinical features (therapeutic effect in EAE mice model): regimen not specified
Protocol: The basic experimental approaches to test the efficacy of the compounds in the EAE model were done using the methodologies developed in our laboratory. EAE disease was induced in 4-6 weeks SJL female mice using 200 μg PLP peptide emulsified in complete Freund's adjuvant (CFA) containing 1 mg heat-killed Mycobacterium tuberculosis, injected at four sites in the right and left flanks. Following each injection, 200 ng of Bordetella pertussis toxin PTX) was injected intraperitoneal (IP) on days 0 and 2 post PLP immunization. The mice were divided into several groups: 1. prevention, where they were treated with 50 μg/mouse of SIMR1281 or SIMR1707 starting 15 days before the induction of EAE and continued […]. 2. Prophylactic, mice were treated with 50 μg/moues of SIMR1281 or SIMR1707 starting from day of EAE induction and continued every three days until termination (usually between 40-45 days). 3. Therapeutic, where mice were treated with 50 μg of SIMR1281 or SIMR1707 from the days of disease development (usually between 8-10 post EAE induction), and continued every three days until termination. The procedure for these regimens is shown below: • A. Prophylactic regimen: Mice were injected IP with 50 μg/mouse every 3 days since the initiation of the disease and until termination.
[drawing 3] • B. Therapeutic regimen: Mice were injected IP with 50 μg/mouse every 3 days at the appearance of symptoms (usually […]) days after initiation of the disease and until termination.
[drawing 4] • C. Prevention: The mice were injected IP with 50 μg/mouse of SIMR 1707 or 1281 at days −15, −10, −5, and 0. EAE was induced at day 0.
(§1) Untreated mice or mice injected with DMSO as a vehicle were used. For positive group, the results regarding the effects of RTX were used. During the course of the EAE disease, the animals were independently observed and monitored daily, and the EAE clinical score was recorded according to the following scoring scheme: 0=no clinical disease, 1=tail flaccidity, 2=hind limb weakness, 3=hind limb paralysis, 4=forelimb paralysis, and 5=moribund or death. The body weight changes were also monitored for all the mice groups. After the termination of the experiment, the mice were sacrificed, and their brains were collected for histological and immunohistochemistry analysis.

[2] = Body weight of EAE mice during treatment; format: in vivo; settings: prophylactic, therapeutic or prevention regimen, measured every day up to 45 days (FIG. 5)
Protocol: as §1
(§2) FIG. 5 illustrates the weights of mice measured every day through the course of the experiments, i.e. up to 45 days after the initiation of the disease. FIGS. 5A, 5B and 5C, show the weights of mice after prophylactic, therapeutic or prevention regimen, respectively. Significant values shown in the right panels compared the mice body weights among the various groups. To corroborate the results of clinical scores with histological evaluation, we performed immunohistochemistry analysis to evaluate the effects of the two drugs on the inflammation taking place in the brain. First, we stained the brain cerebellum of these mice with H&E to evaluate the degree of inflammation.

[3] = test system: perivascular inflammatory infiltrates in cerebellum; test: H&E staining of brain cerebellum (degree of inflammation); format: in vivo, SJL/J female mice; settings: 50 μg/mouse IP (FIG. 6)
Protocol: as §1, §2

[4] = test system: CD3^+ T lymphocyte infiltration into the cerebellum; test: Anti-CD3 staining of cerebellum; format: in vivo, SJL/J female mice; settings: 50 μg/mouse IP (FIG. 7)
Protocol: as §1
FIG. 6 illustrates H&E staining of mice cerebellum (rectangles) showing highly inflamed lesions in EAE untreated and vehicle treated mice (arrows). […] Further, infiltration of CD3 cells into the mice cerebellum stained with anti-CD3 was performed.

[5] = test system: GFAP; test: GFAP staining of cerebellum (glial cell activation, gliosis); format: in vivo, SJL/J female mice; settings: 50 μg/mouse IP (FIG. 8)
Protocol: as §1
FIG. 7 illustrates infiltration of CD3^+ lymphocytes into the cerebellum of mice brains (rectangles or squares). […] To further investigate the effects of the drugs on brain inflammation, we examined the activation of glial cells by staining with GFAP which determines the degree of gliosis.

[6] = test system: demyelination in the cerebellum; test: Luxol fast blue staining of cerebellum (demyelination / re-myelination); format: in vivo, SJL/J female mice; settings: 50 μg/mouse IP (FIG. 9)
Protocol: as §1
FIG. 8 illustrates mouse brain cerebellum (rectangles or squares) was stained with GFAP to determine the degree of glial cell activation. […] Finally, we stained the mice brain cerebellum with Luxol fast blue to determine the degree of re-myelination after treatment with the two drugs.

[7] = prevention regimen, 50 μg/mouse IP on days −15, −10, −5 and 0, EAE induced at day 0, vs vehicle or untreated (FIG. 3C)
[8] = prophylactic regimen, 50 μg/mouse IP every 3 days from EAE induction until termination, vs vehicle or untreated (FIG. 3A)
[9] = therapeutic regimen, 50 μg/mouse IP every 3 days from appearance of symptoms until termination, vs vehicle or untreated (FIG. 3B)

Question: Which results are given for `C[C@]12CCC(=O)C[C@H]1N1CCc3c([nH]c4ccccc34)[C@@H]1CO2` [SIMR-1707]?
Answer: clinical score severity and clinical features (therapeutic effect in EAE mice model) [1]: significant reduction; EAE clinical scores [1, 7]: not when used in the prevention regimen; EAE clinical scores [1, 8]: effective; EAE clinical scores [1, 9]: effective; body weight [2]: significantly increased the weights; inflammation, perivascular inflammatory infiltrates (H&E) ([3]; prevention regimen): minimal evidence of perivascular inflammatory infiltrates; also recorded: less inflammation; inflammation, perivascular inflammatory infiltrates (H&E) ([3]; prophylactic regimen): minimal evidence of perivascular inflammatory infiltrates; also recorded: less inflammation; inflammation, perivascular inflammatory infiltrates (H&E) ([3]; therapeutic regimen): no evidence of perivascular inflammatory infiltrates; also recorded: completely disappeared; CD3^+ T lymphocyte infiltration ([4]; prevention regimen): less infiltration of CD3^+ T cells; CD3^+ T lymphocyte infiltration ([4]; prophylactic regimen): partially reduce; also recorded: less infiltration of CD3^+ T cells; CD3^+ T lymphocyte infiltration ([4]; therapeutic regimen): no evidence of any CD3^+ T lymphocyte infiltration; also recorded: completely disappeared; GFAP expression / gliosis ([5]; prevention regimen): only partial reduction; also recorded: Less gliosis; GFAP expression / gliosis ([5]; prophylactic regimen): significant reduction; also recorded: no obvious glial cells activation; GFAP expression / gliosis ([5]; therapeutic regimen): significant reduction; also recorded: no obvious glial cells activation; demyelination / re-myelination (Luxol fast blue) ([6]; prevention regimen): partial improvement in re-myelination; also recorded: partial improvement in demyelination; demyelination / re-myelination (Luxol fast blue) ([6]; prophylactic regimen): partial improvement in re-myelination; also recorded: partial improvement in demyelination; demyelination / re-myelination (Luxol fast blue) ([6]; therapeutic regimen): significant reduction in the demyelination areas

Question: With `CC1(C)[C@H]2COc3ccc4ccccc4c3[C@H]2N=C2SC(c3ccccc3)=C(c3ccccc3)N21` [SIMR-1281, (8aS,14aS)-9,9-dimethyl-11,12-diphenyl-8a,14a-dihydro-8H,9H-benzo[5,6]chromeno[4,3-d]thiazolo[3,2-a]pyrimidine] as the compound, how does the “clinical score severity and clinical features (therapeutic effect in EAE mice model)” value [1] read?
Answer: significant reduction

Question: What about the EAE clinical scores [1, 7] of the same compound?
Answer: significant decrease

Question: What about the EAE clinical scores [1, 8] of the same compound?
Answer: significant decrease

Question: What about the EAE clinical scores [1, 9] of the same compound?
Answer: significant decrease

Question: What about the body weight [2] of the same compound?
Answer: significantly increased the weights

Question: And the “inflammation, perivascular inflammatory infiltrates (H&E)” value (“inflammation … (H&E)” for short) ([3]; prevention regimen)?
Answer: no evidence of any perivascular inflammatory infiltrates; also recorded: no inflammation

Question: And the “inflammation … (H&E)” value ([3]; prophylactic regimen)?
Answer: no evidence of any perivascular inflammatory infiltrates; also recorded: no inflammation

Question: What about the “inflammation … (H&E)” value ([3]; therapeutic regimen) of the same compound?
Answer: no evidence of any perivascular inflammatory infiltrates; also recorded: no inflammation

Question: What about the “CD3^+ T lymphocyte infiltration” value ([4]; prevention regimen) of the same compound?
Answer: no evidence of CD3^+ T lymphocyte infiltration; also recorded: no CD3^+ T cell accumulation

Question: What about the “CD3^+ T lymphocyte infiltration” value ([4]; prophylactic regimen) of the same compound?
Answer: no evidence of CD3^+ T lymphocyte infiltration; also recorded: no CD3^+ T cell accumulation

Question: What about the “CD3^+ T lymphocyte infiltration” value ([4]; therapeutic regimen) of the same compound?
Answer: no evidence of CD3^+ T lymphocyte infiltration; also recorded: no CD3^+ T cell accumulation

Question: And the “GFAP expression / gliosis” value ([5]; prevention regimen)?
Answer: significant reduction; also recorded: so robust in preventing gliosis

Question: And the “GFAP expression / gliosis” value ([5]; prophylactic regimen)?
Answer: significant reduction; also recorded: so robust in preventing gliosis

Question: What about the “GFAP expression / gliosis” value ([5]; therapeutic regimen) of the same compound?
Answer: significant reduction; also recorded: so robust in preventing gliosis

Question: What about the “demyelination / re-myelination (Luxol fast blue)” value (shortened to “demyelination / re-myelination”) ([6]; prevention regimen) of the same compound?
Answer: no evidence of demyelination

Question: And the “demyelination / re-myelination” value ([6]; prophylactic regimen)?
Answer: no evidence of demyelination

Question: And the “demyelination / re-myelination” value ([6]; therapeutic regimen)?
Answer: no evidence of demyelination

Question: For Rituximab [RTX, reference compound], which EAE clinical scores ([1]; RTX as prophylactic drug, IP from day 0 every three days until termination (FIG. 4A)) is on record?
Answer: did not exert significant differences

Question: What about the EAE clinical scores ([1]; RTX as therapeutic drug, 5 μg/mouse IP from first sign of disease every three days until termination (FIG. 4B)) of the same compound?
Answer: did not exert significant differences

Question: What about the EAE clinical scores ([1]; RTX prevention regimen, IP on days −15, −10, −5 and 0, particularly at high concentration, 20 μg/mouse (FIG. 4C)) of the same compound?
Answer: only worked in the prevention regimen
